Experimental data as given in PubChem BioAssay (NCI).
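Each compound was tested at five concentrations against cells in 96-well plates for 48 hours. GI50 = concentration required for 50% inhibition of growth. TGI is the concentration that stops growth completely.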

How the values were obtained:
Test in all cases: inhibition of tumour cell growth, NCI panel, 48 h
[1] = tested on: K-562 leukemia
[2] = tested on: UO-31 renal
[3] = tested on: MCF7 breast
[4] = tested on: NCI-H460 lung
[5] = tested on: M14 melanoma
[6] = tested on: SN12C renal
[7] = tested on: SW-620 colon
[8] = tested on: OVCAR-3 ovarian
[9] = tested on: RPMI-8226 leukemia
[10] = tested on: OVCAR-8 ovarian
[11] = tested on: HS 578T breast
[12] = tested on: CAKI-1 renal
[13] = tested on: NCI-H226 lung
[14] = tested on: HCC-2998 colon
[15] = tested on: HT29 colon
[16] = tested on: SR leukemia
[17] = tested on: ACHN renal
[18] = tested on: BT-549 breast
[19] = tested on: SF-539 CNS
[20] = tested on: UACC-257 melanoma
[21] = tested on: HOP-92 NSCLC
[22] = tested on: TK-10 renal
[23] = tested on: 786-0 renal
[24] = tested on: A498 renal
[25] = tested on: NCI-H522 lung
[26] = tested on: MOLT-4 leukemia
[27] = tested on: RXF 393 renal
[28] = tested on: NCI-H23 lung
[29] = tested on: SK-MEL-2 melanoma
[30] = tested on: HCT-15 colon
[31] = tested on: DU-145 prostate
[32] = tested on: UACC-62 melanoma
[33] = tested on: A549 NSCLC
[34] = tested on: HCT-116 colon
[35] = tested on: OVCAR-5 ovarian
[36] = tested on: U251 CNS
[37] = tested on: SNB-19 CNS
[38] = tested on: IGROV1 ovarian
[39] = tested on: T-47D breast
[40] = tested on: PC-3 prostate
[41] = tested on: EKVX NSCLC
[42] = tested on: SF-295 CNS
[43] = tested on: SK-MEL-5 melanoma
[44] = tested on: LOX IMVI melanoma
[45] = tested on: MDA-MB-231 breast
[46] = tested on: MALME-3M melanoma
[47] = tested on: NCI/ADR-RES ovarian
[48] = tested on: CCRF-CEM leukemia
[49] = tested on: SK-MEL-28 melanoma
[50] = tested on: OVCAR-4 ovarian
[51] = tested on: COLO 205 colon
[52] = tested on: SNB-75 CNS
[53] = tested on: MDA-MB-435
[54] = tested on: HL-60(TB) leukemia
[55] = tested on: KM12 colon
[56] = tested on: HOP-62 NSCLC
[57] = tested on: SF-268 CNS
[58] = tested on: SK-OV-3 ovarian

COc1ccc(OC)c([N+](=O)[O-])c1-c1nc2sc(Cl)cn2c1/C=N/N=C(N)N
TGI [1]: 56.3 µM | TGI [2]: 33.1 µM | TGI [3]: 46.3 µM | TGI [4]: 56.8 µM | TGI [5]: > 100 µM | TGI [6]: 37.5 µM | TGI [7]: 55 µM | TGI [8]: 40.4 µM | TGI [9]: > 100 µM | TGI [10]: 43.1 µM | TGI [11]: 51.7 µM | TGI [12]: 38.5 µM | TGI [13]: 44.1 µM | TGI [14]: 35.6 µM | TGI [15]: 34 µM | TGI [16]: 34.7 µM | TGI [17]: 86.3 µM | TGI [18]: 38.7 µM | TGI [19]: 53.5 µM | TGI [20]: 37.5 µM | TGI [21]: 31.2 µM | TGI [22]: 48.7 µM | TGI [23]: > 100 µM | TGI [24]: 33.7 µM | TGI [25]: 37.9 µM | TGI [26]: 23.2 µM | TGI [27]: 48.3 µM | TGI [28]: 60.7 µM | TGI [29]: 38.8 µM | TGI [30]: > 100 µM | TGI [31]: 42.8 µM | TGI [32]: 29.5 µM | TGI [33]: 58.3 µM | TGI [34]: > 100 µM | TGI [35]: 71.7 µM | TGI [36]: > 100 µM | TGI [37]: 43.4 µM | TGI [38]: 28.8 µM | TGI [39]: 42.7 µM | TGI [40]: 41.8 µM | TGI [41]: 57 µM | TGI [42]: 50.2 µM | TGI [43]: 32.3 µM | TGI [44]: > 100 µM | TGI [45]: 35.7 µM | TGI [46]: 42.4 µM | TGI [47]: > 100 µM | TGI [48]: > 100 µM | TGI [49]: 33.4 µM | TGI [50]: 30.1 µM | TGI [51]: > 100 µM | TGI [52]: 24.9 µM | TGI [53]: 46.3 µM | TGI [54]: 29 µM | TGI [55]: 46.3 µM | TGI [56]: > 100 µM | TGI [57]: 64.8 µM

CCOc1cc(/C=C/C(=O)CC(=O)/C=C/c2ccc(OC(=O)CNc3nc4ccc(OC)cc4s3)c(OCC)c2)ccc1OC(=O)CNc1nc2ccc(OC)cc2s1
GI50 [1]: 2710 nM | TGI [1]: > 100 µM | GI50 [2]: 2580 nM | TGI [2]: > 100 µM | GI50 [3]: 2540 nM | TGI [3]: 10.8 µM | GI50 [4]: 5.1 µM | TGI [4]: 23.4 µM | GI50 [5]: 5.18 µM | TGI [5]: 22.5 µM | GI50 [6]: 11.6 µM | TGI [6]: 65.5 µM | GI50 [7]: 3.78 µM | TGI [7]: 13.2 µM | GI50 [8]: 4.45 µM | TGI [8]: 29 µM | GI50 [9]: 1690 nM | TGI [9]: 4.29 µM | GI50 [10]: 2500 nM | TGI [10]: 6.32 µM | GI50 [11]: 3.16 µM | TGI [11]: 23.9 µM | GI50 [12]: 11.4 µM | TGI [12]: 53.3 µM | GI50 [13]: 12.9 µM | TGI [13]: 34.1 µM | GI50 [58]: 9.89 µM | TGI [58]: 53 µM | GI50 [14]: 3.16 µM | TGI [14]: 14.8 µM | GI50 [15]: 2280 nM | TGI [15]: 4.8 µM | GI50 [16]: 1770 nM | TGI [16]: 4.66 µM | GI50 [17]: 14.2 µM | TGI [17]: 60.2 µM | GI50 [18]: 2620 nM | TGI [18]: 8.78 µM | GI50 [19]: 2120 nM | TGI [19]: 5.14 µM | GI50 [20]: 5.53 µM | TGI [20]: 21.1 µM | GI50 [21]: 18 µM | TGI [21]: 56.3 µM | GI50 [22]: 11.4 µM | TGI [22]: 27.5 µM | GI50 [23]: 17 µM | TGI [23]: 85.1 µM | GI50 [24]: 13.4 µM | TGI [24]: 26.2 µM | GI50 [25]: 12.6 µM | TGI [25]: 34.4 µM | GI50 [26]: 3.14 µM | TGI [26]: 11.1 µM | GI50 [27]: 2900 nM | TGI [27]: 17 µM | GI50 [28]: 7.78 µM | TGI [28]: 75.4 µM | GI50 [29]: 4.94 µM | TGI [29]: 29.1 µM | GI50 [30]: 5.24 µM | TGI [30]: 22.6 µM | GI50 [31]: 3.17 µM | TGI [31]: 12.3 µM | GI50 [32]: 7.6 µM | TGI [32]: 20.3 µM | GI50 [33]: 4.94 µM | TGI [33]: 31 µM | GI50 [34]: 3.02 µM | TGI [34]: 15.1 µM | GI50 [35]: 15.3 µM | TGI [35]: 34 µM | GI50 [36]: 3.93 µM | TGI [36]: 14.5 µM | GI50 [37]: 6.02 µM | TGI [37]: 19.4 µM | GI50 [39]: 10.6 µM | TGI [39]: 43.1 µM | GI50 [40]: 5.08 µM | TGI [40]: 67.3 µM | GI50 [41]: 3.48 µM | TGI [41]: 11.7 µM | GI50 [42]: 15.4 µM | TGI [42]: 33.2 µM | GI50 [43]: 5.25 µM | TGI [43]: 17.2 µM | GI50 [44]: 3.28 µM | TGI [44]: 12.1 µM | GI50 [45]: 13.8 µM | TGI [45]: 60 µM | GI50 [46]: 12.3 µM | TGI [46]: 27.3 µM | GI50 [47]: 20 µM | TGI [47]: > 100 µM | GI50 [48]: 1960 nM | TGI [48]: 5.46 µM | GI50 [49]: 3.54 µM | TGI [49]: 12.2 µM | GI50 [50]: 13.6 µM | TGI [50]: 68.5 µM | GI50 [51]: 14 µM | TGI [51]: 29.3 µM | GI50 [52]: 6.77 µM | TGI [52]: 34.3 µM | GI50 [53]: 2460 nM | TGI [53]: 8.3 µM | GI50 [54]: 2770 nM | TGI [54]: 15.2 µM | GI50 [55]: 2960 nM | TGI [55]: 12.1 µM | GI50 [56]: 23 µM | TGI [56]: > 100 µM | GI50 [57]: 3.12 µM | TGI [57]: 25.8 µM
